{"source": "paper PMC4783973", "about": "“Synthetic Human TLR9-LRR11 Peptide Attenuates TLR9 Signaling by Binding to and thus Decreasing Internalization of CpG Oligodeoxynucleotides” (International Journal of Molecular Sciences, 2016)", "key": {"RAW264.7 cells [1]": {"test_system": "RAW264.7 cells", "experiment": "TNF-α and IL-6 release from RAW264.7 cells, both cytokines stated together (ELISA)", "format": "cell-based, mouse", "details": "peptide alone, without CpG ODN; 6 h", "procedure": "Figure 1 Synthetic peptide (SP) decreased TNF-α and IL-6 release from RAW264.7 cells treated with CpG oligodeoxynucleotides (CpG ODN). RAW264.7 cells (4.0 × 10^5 cells) grown in 48-well plates were treated with 1.5 μM of ODN2006 or ODN107 preincubated with SP (0, 0.5, 1.5, or 4.5 μM) or unrelated peptide (URP) (4.5 μM) at 37 °C for 15 min. After incubation for 6 h, the supernatants were collected to detect TNF-α (A) and IL-6 (B) using enzyme-linked immunosorbent assay (ELISA) kits. Data from one of three independent experiments are shown (n = 4). “*”, p < 0.05 vs. ODN2006 or ODN107; “**”, p < 0.01 vs. ODN2006 or ODN107; “#”, p > 0.05 vs. ODN2006 or ODN107.\nExperiments were performed as described in Figure 1. The concentrations of ODN2006, LPS, PAM3 and SP were 1.5 μM, 20 ng/mL, 5 μg/mL and 1.5 μM, respectively. Data from one of three independent experiments are shown (n = 3).\n(§1) The RAW264.7 cell line was purchased from American Type Culture Collection (ATCC, Manassas, VA, USA). Cells were cultured in DMEM (high glucose) medium containing 10% FCS in a 37 °C humidified atmosphere with 5% CO2. Cells diluted with 0.4% trypan blue in phosphate-buffered saline (PBS, 0.1 mM, pH 7.2–7.4) were counted using a hemocytometer.\nRAW264.7 cells (4.0 × 10^5 cells) were incubated in 48-well plates for 4 h, and supernatants were replaced with 0.4 mL of serum-free DMEM medium containing 1.5 μM of ODN2006 or ODN107, which had been preincubated with 0, 0.5, 1.5 or 4.5 μM of SP or 4.5 μM of URP at 37 °C for 15 min. After incubation for 6 h, the supernatants were collected to detect TNF-α and IL-6 concentrations using corresponding ELISA kits (eBioscience)."}, "RAW264.7 cells [2]": {"test_system": "RAW264.7 cells", "experiment": "FAM-2006 internalization within RAW264.7 cells, laser confocal scanning", "format": "cell-based", "details": "peptide 4.5 μM preincubated with FAM-2006 1.5 μM; 30 min; n = 100", "procedure": "Figure 5 Synthetic peptide (SP) inhibited ODN2006 internalization, as assessed using laser confocal scanning (Scale bar = 20 μm). RAW264.7 cells (1 × 10^6 cells) grown on 2-cm glass bottom dishes were treated with normal medium, 1.5 μM of FAM-labeled ODN2006 (FAM-2006) that had been preincubated with SP (0, 0.5, 1.5 or 4.5 μM) or unrelated peptide (URP; 4.5 μM) at 37 °C for 15 min. After treatment for 30 min, cells were washed with warm phosphate buffered saline (PBS) and fixed with 4% (m/v) paraformaldehyde, then stained with DAPI (4′,6-diamidino-2-phenylindole) (blue). The intracellular FAM-2006 (green) was observed using a laser confocal microscope (A); Mean fluorescence intensity (MFI) values (B) and the percentages of cells with FAM-2006 dots (green fluorescence) (C) were calculated by the ZENlite 2012 software (n = 100). “**”, p < 0.01; “#”, p > 0.05 vs. FAM-2006 alone.\nas §1, with “hemocytometer. […]” for “hemocytometer.”"}, "NF-κB p65 subunit": {"test_system": "NF-κB p65 subunit", "experiment": "NF-κB activity assay, p65 subunit in nuclear extract of RAW264.7 cells (Trans^AM ELISA)", "format": "cell-based", "details": "peptide alone 4.5 μM; 4 h; n = 3", "procedure": "Figure 3 Synthetic peptide (SP) inhibited NF-κB activation induced by CpG oligodeoxynucleotides (CpG ODN) in RAW264.7 cells. RAW264.7 cells (5.0 × 10^6 cells) grown in six-well plates were treated with 1.5 μM of ODN2006 (A) or ODN107 (B) preincubated with SP (0, 0.5, 1.5, or 4.5 μM) or unrelated peptide (URP) (4.5 μM) at 37 °C for 15 min. After incubation for 4 h, the cells were collected to extract nuclear proteins. The p65 subunit was detected using enzyme-linked immunosorbent assay (ELISA) kits. Data from one of three independent experiments are shown (n = 3). “*”, p < 0.05 vs. ODN2006 or ODN107; “**”, p < 0.01 vs. ODN2006 or ODN107; “#”, p > 0.05 vs. ODN2006 or ODN107.\nas §1\nRAW264.7 cells (5.0 × 10^6 cells) were placed in six-well plates for 4 h, and the supernatants were then replaced with fresh medium containing 1.5 μM of ODN2006 or ODN107 that had been preincubated with SP (0, 0.5, 1.5, or 4.5 μM) or URP (4.5 μM) at 37 °C for 15 min. After incubation for 4 h, the cells were collected to extract nuclear proteins. Equal amounts of each sample were used to detect the DNA binding activity of the NF-κB p65 subunit using Trans^AM NF-κB ELISA kits (Active Motif), according to the manufacturer’s instructions."}, "ODN2006": {"test_system": "ODN2006", "experiment": "IAsys biosensor binding to immobilized biotinylated ODN2006", "details": "IAsys Plus biosensor; peptide 50 μM", "procedure": "Figure 8 Synthetic peptide (SP) specifically binds ODN2006. (A) Binding curves generated by the IAsys biosensor. Biotinylated ODN2006 was immobilized on the surface of a streptavidin-coated cuvette. A series of concentration of SP (3.1, 6.3, 12.5, 25 or 50 μM) or unrelated peptide (URP) (50 μM) were added separately into the cuvette to generate the binding curves. Data were analyzed using FASTplot, and the dissociation equilibrium constant (KD) of SP was calculated using FASTfit; (B) Binding curves generated by the Biacore biosensor. Biotinylated ODN2006 was immobilized on a streptavidin-coated chip, and then a series of concentrations of SP (0.63, 1.25, 2.5, 5 or 10 μM) or URP (10 μM) were loaded separately to generate the binding curves. Data analysis and KD calculation were performed using the BIAevaluation software.\nThe affinity assay was firstly carried out using an IAsys Plus affinity biosensor (Thermo Labsystem, Altrincham, Cheshire, UK), according to our previous report. Biotinylated ODN2006 was immobilized on the surface of a streptavidin-coated cuvette according to the user manual. […] Binding curves were analyzed and visualized using FASTplot (Thermo), and the dissociation equilibrium constant (KD) of SP with ODN2006 was calculated using FASTfit (Thermo)."}, "[3]": {"test_system": "IκBα phosphorylation and NF-κB activation", "details": "ref [19],[20]; cited from earlier work", "excerpt": "(§2) NF-κB is one of the most important inflammatory switches that comprise a series of transcription factors that regulate the expressions of various proinflammatory cytokines (IL-1, IL-6, IL-8 and TNF-α). NF-κB activation is depended on the degradation and phosphorylation of IκBα [12]."}, "[4]": {"test_system": "CpG ODN-induced cytokine release", "details": "ref [19],[20]; cited from earlier work", "excerpt": "CpG ODN-induced diseases, such as sepsis and some autoimmune disorders, are triggered by uncontrolled release of proinflammatory cytokines, e.g., TNF-α and IL-6 [18]. […] Herein, we firstly evaluated the inhibitory effect of SP on CpG ODN-induced cytokine release in the cellular tests. Tw ... || NF-κB is one of the most important inflammatory switches that comprise a series of transcription factors that regulate the expressions of various proinflammatory cytokines (IL-1, IL-6, IL-8 and TNF-α). NF-κB activation is depended on the degradation and phosphorylation of IκBα [12]."}, "IκBα and ERK1/2": {"test_system": "IκBα and ERK1/2", "details": "LPS-induced; ref [22]; cited from earlier work", "excerpt": "as §2"}, "[5]": {"test_system": "LPS-induced cytokine release", "details": "by decreasing both IκBα and ERK1/2 phosphorylation; ref [22]; cited from earlier work"}}}
{"compound": "LQTLDLRDNALTTIHFIPSIPD [URP, unrelated peptide derived from LRR14 of human TLR5, used as negative control]", "values": [{"measurement": "effect of peptide alone on TNF-α and IL-6 release", "setting": "RAW264.7 cells [1]", "result": "no influence on cytokines release"}, {"measurement": "mean fluorescence intensity (MFI) produced by FAM-2006 within the cells", "setting": "RAW264.7 cells [2]", "result": "no such effect"}, {"measurement": "effect of peptide alone on p65 activation", "setting": "NF-κB p65 subunit", "result": "no effect"}, {"measurement": "binding response to ODN2006", "setting": "ODN2006", "result": "no such response"}]}
{"compound": "kukoamine B", "values": [{"measurement": "effect on IκBα phosphorylation and NF-κB activation", "setting": "[3]", "result": "inhibitors of IκBα phosphorylation and NF-κB activation"}, {"measurement": "effect on CpG ODN-induced cytokine release", "setting": "[4]", "result": "inhibitors of CpG ODN-induced cytokine release"}, {"measurement": "effect on proinflammatory cytokines", "setting": "[4]", "result": "inhibited proinflammatory cytokines"}]}
{"compound": "COc1ccc(/C=C/c2cc(O)cc(O)c2)cc1", "note": "[desoxyrhapontigenin]", "values": [{"measurement": "effect on IκBα and ERK1/2 phosphorylation", "setting": "IκBα and ERK1/2", "result": "decreasing both of IκBα and ERK1/2 phosphorylation"}, {"measurement": "effect on LPS-induced cytokine release", "setting": "[5]", "result": "inhibited LPS-induced cytokine release"}]}
